Reference: patent US11807644B2 (PMV Pharmaceuticals, Inc., priority 2020, dated 2023)

Target: T1, recombinant His-tag Y220C p53 DBD protein (Homo sapiens, UniProt P04637, Y220C)
T1 construct: recombinant His-tag Y220C p53 DBD protein (amino acids #˜94-312)
Experiment: In vitro DNA binding activity assay (TR-FRET): binding of His-tag Y220C p53 DBD to biotin-labeled consensus DNA
Assay type: biochemical
Settings: for Y220C SC150 (μM): SC150 = concentration to increase DNA binding by […], His-tag Y220C p53 DBD, biotin-labeled consensus DNA; for SC150 (μM): concentration to increase DNA binding by […], incubated at either 27° C. or 29° C. for 60 min

Row | SMILES | Y220C SC150 (μM) | SC150 (μM)
1 | CN1CCC(Nc2cccc3c2cc(-c2nnc(CNc4cn[nH]c4)s2)n3CC(F)(F)F)CC1 [Compound 82B, N-(1-methylpiperidin-4-yl)-2-(5-{[(1H-pyrazol-4-yl)amino]methyl}-1,3,4-thiadiazol-2-yl)-1-(2,2,2-trifluoroethyl)-1H-indol-4-amine] | ** (** = 0.1 μM ≤ SC150 < 0.5 μM) | 
2 | O=C(NCc1nc(-c2cc3c(NCc4ccccc4)cccc3n2CC(F)(F)F)no1)C1CC1 [Compound 160B, N-({3-[4-(benzylamino)-1-(2,2,2-trifluoroethyl)-1H-indol-2-yl]-1,2,4-oxadiazol-5-yl}methyl)cyclopropanecarboxamide] | ** (** = 0.1 μM ≤ SC150 < 0.5 μM) | 
3 | CN1CCC(Nc2cccc3c2cc(-c2nnc(CNC(=O)c4ccccn4)s2)n3CC(F)(F)F)CC1 [Compound 41B, N-[(5-{4-[(1-methylpiperidin-4-yl)amino]-1-(2,2,2-trifluoroethyl)-1H-indol-2-yl}-1,3,4-thiadiazol-2-yl)methyl]pyridine-2-carboxamide] | ** (** = 0.1 μM ≤ SC150 < 0.5 μM) | 
4 | O=S1(=O)CCC(Nc2cccc3c2cc(-c2ccc(CO)cc2)n3CC(F)(F)F)CC1 [Compound 27A, 4-({2-[4-(hydroxymethyl)phenyl]-1-(2,2,2-trifluoroethyl)-1H-indol-4-yl}amino)-1λ^6-thiane-1,1-dione] |  | ++ (++ = 2 μM ≤ SC150 < 5 μM)
5 | O=C(NCc1nc(-c2cc3c(NC4CCNC4)cccc3n2CC(F)(F)F)no1)C1CC1 (racemic) [Compound 167B, (+/−)-N-[(3-{4-[(pyrrolidin-3-yl)amino]-1-(2,2,2-trifluoroethyl)-1H-indol-2-yl}-1,2,4-oxadiazol-5-yl)methyl]cyclopropanecarboxamide] | * (* = 0 μM ≤ SC150 < 0.1 μM) | 
6 | CN1CC[C@@H](Nc2cccc3c2cc(-c2noc(CNC(=O)c4cn(C5CC5)cn4)n2)n3CC(F)(F)F)[C@@H](F)C1 [Compound 327B, 1-cyclopropyl-N-{[3-(4-{[(3S,4R)-3-fluoro-1-methylpiperidin-4-yl]amino}-1-(2,2,2-trifluoroethyl)-1H-indol-2-yl)-1,2,4-oxadiazol-5-yl]methyl}-1H-imidazole-4-carboxamide] | * (* = 0 μM ≤ SC150 < 0.1 μM) | 
7 | COCC(C)(C)n1ccc(C(=O)NCc2nc(-c3cc4c(N[C@@H]5CN(C)CC[C@@H]5F)cccc4n3CC(F)(F)F)no2)c1 [Compound 417B, N-{[3-(4-{[(3R,4S)-4-fluoro-1-methylpiperidin-3-yl]amino}-1-(2,2,2-trifluoroethyl)-1H-indol-2-yl)-1,2,4-oxadiazol-5-yl]methyl}-1-(1-methoxy-2-methylpropan-2-yl)-1H-pyrrole-3-carboxamide] | * (* = 0 μM ≤ SC150 < 0.1 μM) | 
8 | CN1CC[C@@H](Nc2cccc3c2cc(-c2noc(CNC(=O)c4csc(N5CCOCC5)c4)n2)n3CC(F)(F)F)[C@@H](F)C1 [Compound 436B, N-{[3-(4-{[(3S,4R)-3-fluoro-1-methylpiperidin-4-yl]amino}-1-(2,2,2-trifluoroethyl)-1H-indol-2-yl)-1,2,4-oxadiazol-5-yl]methyl}-5-(morpholin-4-yl)thiophene-3-carboxamide] | * (* = 0 μM ≤ SC150 < 0.1 μM) | 
9 | CS(=O)(=O)c1ccc(NCc2ccc(-c3cc4c(NC5CCS(=O)(=O)CC5)cccc4n3CC(F)(F)F)cc2)cc1 [Compound 8A, 4-{[2-(4-{[(4-methanesulfonylphenyl)amino]methyl}phenyl)-1-(2,2,2-trifluoroethyl)-1H-indol-4-yl]amino}-1λ^6-thiane-, 1-dione] |  | + (+ = 0 μM ≤ SC150 < 2 μM)
10 | Cc1ccc(NCc2ccc(-c3cc4cc(CNC5CCN(C)CC5)ccc4n3CC(F)(F)F)cc2)cn1 [Compound 35A, 6-methyl-N-{[4-(5-{[(1-methylpiperidin-4-yl)amino]methyl}-1-(2,2,2-trifluoroethyl)-1H-indol-2-yl)phenyl]methyl}pyridin-3-amine] |  | +++ (+++ = 5 μM ≤ SC150 < 10 μM)
11 | CN1CC[C@@H](Nc2cccc3c2cc(-c2noc(CNc4nccc5ccsc45)n2)n3CC(F)(F)F)[C@@H](F)C1 [Compound 445B, N-[(3S,4R)-3-fluoro-1-methylpiperidin-4-yl]-2-{5-[({thieno[2,3-c]pyridin-7-yl}amino)methyl]-1,2,4-oxadiazol-3-yl}-1-(2,2,2-trifluoroethyl)-1H-indol-4-amine] | * (* = 0 μM ≤ SC150 < 0.1 μM) | 
12 | Cn1ccc(C(=O)NCc2nc(-c3cc4c(N[C@@H]5CCN(C(C)(C)C)C[C@@H]5F)cccc4n3CC(F)(F)F)no2)c1 [Compound 397B, N-{[3-(4-{[(3S,4R)-1-tert-butyl-3-fluoropiperidin-4-yl]amino}-1-(2,2,2-trifluoroethyl)-1H-indol-2-yl)-1,2,4-oxadiazol-5-yl]methyl}-1-methyl-1H-pyrrole-3-carboxamide] | * (* = 0 μM ≤ SC150 < 0.1 μM) | 
13 | CN1CC[C@@H](Nc2cccc3c2cc(-c2noc(CNC(=O)c4cnn(C5CC5)c4)n2)n3CC(F)(F)F)[C@@H](F)C1 [Compound 296B, 1-cyclopropyl-N-{[3-(4-{[(3S,4R)-3-fluoro-1-methylpiperidin-4-yl]amino}-1-(2,2,2-trifluoroethyl)-1H-indol-2-yl)-1,2,4-oxadiazol-5-yl]methyl}-1H-pyrazole-4-carboxamide] | * (* = 0 μM ≤ SC150 < 0.1 μM) | 
14 | CN1CCC(Nc2cccc3c2cc(-c2nc(CNc4ccc(S(C)(=O)=O)cc4)no2)n3CC(F)(F)F)CC1 [Compound 136B, N-(1-methylpiperidin-4-yl)-2-(3-(((4-(methylsulfonyl)phenyl)amino)methyl)-1,2,4-oxadiazol-5-yl)-1-(2,2,2-trifluoroethyl)-1H-indol-4-amine] | * (* = 0 μM ≤ SC150 < 0.1 μM) | 
15 | CC(Nc1ccc(S(C)(=O)=O)cc1)c1ccc(-c2cc3c(NC4CCN(C)CC4)cccc3n2CC(F)(F)F)cc1 (centres unmarked) [Compound 41A, 2-(4-{1-[(4-methanesulfonylphenyl)amino]ethyl}phenyl)-N-(1-methylpiperidin-4-yl)-1-(2,2,2-trifluoroethyl)-1H-indol-4-amine] |  | ++ (++ = 2 μM ≤ SC150 < 5 μM)
16 | CN1CC[C@@H](Nc2cccc3c2cc(-c2noc(CNC(=O)c4ccccn4)n2)n3CC(F)(F)F)[C@@H](F)C1 [Compound 201B, N-{[3-(4-{[(3S,4R)-3-fluoro-1-methylpiperidin-4-yl]amino}-1-(2,2,2-trifluoroethyl)-1H-indol-2-yl)-1,2,4-oxadiazol-5-yl]methyl}pyridine-2-carboxamide] | * (* = 0 μM ≤ SC150 < 0.1 μM) | 
17 | CN1CC[C@@H](Nc2cccc3c2cc(-c2noc(CNC(=O)[C@@H]4C[C@H]4CN4CCOCC4)n2)n3CC(F)(F)F)[C@@H](F)C1 [Compound 245B, (1R,2R)-N-{[3-(4-{[(3S,4R)-3-fluoro-1-methylpiperidin-4-yl]amino}-1-(2,2,2-trifluoroethyl)-1H-indol-2-yl)-1,2,4-oxadiazol-5-yl]methyl}-2-[(morpholin-4-yl)methyl]cyclopropane-1-carboxamide] | * (* = 0 μM ≤ SC150 < 0.1 μM) | 
18 | CC(C)N1CC[C@@H](Nc2cccc3c2cc(-c2noc(CNC(=O)c4ccn(C(C)(C)C)c4)n2)n3CC(F)(F)F)[C@@H](F)C1 [Compound 317B, 1-tert-butyl-N-{[3-(4-{[(3S,4R)-3-fluoro-1-(propan-2-yl)piperidin-4-yl]amino}-1-(2,2,2-trifluoroethyl)-1H-indol-2-yl)-1,2,4-oxadiazol-5-yl]methyl}-1H-pyrrole-3-carboxamide] | * (* = 0 μM ≤ SC150 < 0.1 μM) | 
19 | CCCNC[C@@H]1C[C@H]1C(=O)NCc1nc(-c2cc3c(N[C@@H]4CCN(C)C[C@@H]4F)cccc3n2CC(F)(F)F)no1 [Compound 247B, (1R,2R)-N-{[3-(4-{[(3S,4R)-3-fluoro-1-methylpiperidin-4-yl]amino}-1-(2,2,2-trifluoroethyl)-1H-indol-2-yl)-1,2,4-oxadiazol-5-yl]methyl}-2-[(propylamino)methyl]cyclopro-pane-1-carboxamide] | * (* = 0 μM ≤ SC150 < 0.1 μM) | 
20 | CN1CC[C@@H](Nc2cccc3c2cc(-c2noc(CNC(=O)c4csc(N(C)C)n4)n2)n3CC(F)(F)F)[C@@H](F)C1 [Compound 435B, 2-(dimethylamino)-N-{[3-(4-{[(3S,4R)-3-fluoro-1-methylpiperidin-4-yl]amino}-1-(2,2,2-trifluoroethyl)-1H-indol-2-yl)-1,2,4-oxadiazol-5-yl]methyl}-1,3-thiazole-4-carboxamide] | * (* = 0 μM ≤ SC150 < 0.1 μM) | 
21 | CCN1CC[C@@H](Nc2cccc3c2cc(-c2noc(CNC(=O)c4ccn(C5CCCC5)c4)n2)n3CC(F)(F)F)[C@@H](F)C1 [Compound 320B, 1-cyclopentyl-N-{[3-(4-{[(3S,4R)-1-ethyl-3-fluoropiperidin-4-yl]amino}-1-(2,2,2-trifluoroethyl)-1H-indol-2-yl)-1,2,4-oxadiazol-5-yl]methyl}-1H-pyrrole-3-carboxamide] | * (* = 0 μM ≤ SC150 < 0.1 μM) | 
22 | CC(C)(C)N1CC[C@@H](Nc2cccc3c2cc(-c2noc(CNC(=O)c4ccn(C(C)(C)C)c4)n2)n3CC(F)(F)F)[C@@H](F)C1 [Compound 393B, 1-tert-butyl-N-{[3-(4-{[(3S,4R)-1-tert-butyl-3-fluoropiperidin-4-yl]amino}-1-(2,2,2-trifluoroethyl)-1H-indol-2-yl)-1,2,4-oxadiazol-5-yl]methyl}-1H-pyrrole-3-carboxamide] | * (* = 0 μM ≤ SC150 < 0.1 μM) | 
23 | CN(Cc1nc(-c2cc3c(N[C@@H]4CCNC[C@@H]4F)cccc3n2CC(F)(F)F)no1)c1cn[nH]c1 (racemic) [Compound 191B, (+/−)-N-[(3R,4S)-3-fluoropiperidin-4-yl]-2-(5-{[methyl(1H-pyrazol-4-yl)amino]methyl}-1,2,4-oxadiazol-3-yl)-1-(2,2,2-trifluoroethyl)-1H-indol-4-amine] | ** (** = 0.1 μM ≤ SC150 < 0.5 μM) | 
